In patent US12612408B2, “Pyrazolone-fused pyrimidine compound, preparation method for same and applications thereof” (SHANGHAI PHARMACEUTICALS HOLDING CO., LTD., priority 2019, dated 2026):
Where two headings read alike, the source gives them in different places.

Assays:
[1] = Bioavailability test in vivo in mice (pharmacokinetics, iv and intragastric); parameters: species or system ICR mice; conditions: for Cmax / MRT / Tmax / clearance / half-life / Vd / bioavailability: ICR, mouse, plasma; for bioavailability: po 10 mg/kg vs iv 3 mg/kg, read-out: F (absolute bioavailability)
Procedure: 404.6 μL of DMSO was added to the compound powder of the present disclosure until the compound was completely dissolved, and 50 mg/mL mother liquor was prepared in a clarified state.
The compound of the present disclosure: 24 μL of mother liquor was accurately measured, diluted to 4 mL according to the ratio of 0.9% normal saline:PEG400=8:2, the preparation concentration was 0.3 mg/mL, the solution was in a clarified state, and it was used as intravenous administration solution. In addition, 80 μL mother liquor was accurately measured, and 0.5% CMC-Na was added to 8 mL to grind it into a uniform suspension with a concentration of 0.5 mg/mL, which was used as intragastric administration solution.
(§1) Intravenous group: 24 ICR mice, 20±2 g, were given the intravenous administration solution of the compound of the present disclosure by intravenous injection, with the volume of 10 mL/kg, with the dose of 3 mg/kg, the blood was taken from the fundus venous plexus of mice, 2, 5, 15, 30, 60, 90, 120, 240, 360, 480, 600 and 1440 minutes before and after administration.
as §1, with “Intragastric group:” for “Intravenous group:”, “the intragastric” for “the intravenous”, “by intragastric” for “by intravenous”, “of 20” for “of 10”, “of 10” for “of 3”, “mice,” for “mice, 2,”
Blood sample was centrifuged at 8000 rpm for 5 min, and the plasma was stored in a centrifuge tube at −20° C. for later use.
300 μL of acetonitrile containing internal standard (Propranolol, 25 ng/mL) was added to 50 μL of plasma samples to precipitate protein, vortexed for 10 min, 6000 g, 4° C., centrifuged for 10 min; the supernatant before intravenous injection for 1 hour was taken, diluted 10 times with acetonitrile containing internal standard, the rest supernatant was kept undiluted, centrifuged for 10 min again at 6000 g, 4° C., and the supernatant was taken and then injected into a 96-well plate.
Dose; peak concentration: Cmax; peak time: Tmax; area under the drug-time curve from AUClast 0 to time t; half-life: T1/2; mean retention time: MRT; clearance: Cl; apparent distribution volume: Vz; steady-state distributed volume: Vss; absolute bioavailability: F.
The pharmacokinetic parameters of the compound in mice after intravenous injection or intragastric administration were shown in Table 4 and Table 5 below.

WEE1 kinase = target: T1, WEE1 kinase (Homo sapiens, UniProt P30291); assay: Inhibitory effect of compound on WEE1 kinase in vitro (ELISA); format: biochemical; conditions: ATP concentration of Km
T1 construct: purchased CarnaBiosciences, Inc. 05-177
T1 sequence (P30291 whole entry): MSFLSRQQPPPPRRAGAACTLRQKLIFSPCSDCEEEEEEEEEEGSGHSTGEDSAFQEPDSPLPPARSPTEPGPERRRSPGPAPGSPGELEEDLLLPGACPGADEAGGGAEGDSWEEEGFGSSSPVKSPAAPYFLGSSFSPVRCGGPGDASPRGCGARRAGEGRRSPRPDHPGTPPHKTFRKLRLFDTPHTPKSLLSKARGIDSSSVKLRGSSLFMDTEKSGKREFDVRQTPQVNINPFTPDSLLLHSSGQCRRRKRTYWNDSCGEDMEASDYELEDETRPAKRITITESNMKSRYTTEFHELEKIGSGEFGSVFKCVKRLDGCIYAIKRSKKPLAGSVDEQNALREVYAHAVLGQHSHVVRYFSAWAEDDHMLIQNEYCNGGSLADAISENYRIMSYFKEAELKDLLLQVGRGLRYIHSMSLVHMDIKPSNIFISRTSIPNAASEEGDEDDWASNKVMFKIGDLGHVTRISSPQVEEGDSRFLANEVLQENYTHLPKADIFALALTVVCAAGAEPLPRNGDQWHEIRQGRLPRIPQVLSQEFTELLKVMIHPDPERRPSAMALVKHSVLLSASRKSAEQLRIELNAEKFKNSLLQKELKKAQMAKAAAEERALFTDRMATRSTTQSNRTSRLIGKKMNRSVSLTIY
Procedure: The tested compounds were screened on WEE1 kinase with ATP concentration of Km by ELISA. Compounds were screened on WEE1 kinase to evaluate the kinase inhibitory activity of the tested compounds. In the detection process, the initial concentration of the tested compounds was all selected as 100 nM, and each compound was selected with 6 gradient dilution concentrations, the gradient dilution ratio was 4-fold, and two replicate wells were detected for each concentration, MK1775 was used as the standard control.
WEE1, purchased from CarnaBiosciences, Inc., Item No. 05-177; dimethyl sulfoxide, purchased from Sigma-Aldrich, Item No. D8418; ATP, purchased from Sigma-Aldrich, Item No. A7699; DTT solution, purchased from Sigma-Aldrich, Item No. 43816; protein tyrosine kinase (PTK) substrate (poly-Glu-Tyr), purchased from Sigma-Aldrich, Item No. P4476; P-Tyr (PY99), purchased from Santa Cruz, Item No. sc-7020; Anti-mouse IgG HRP-linked Antibody, purchased from Santa Cruz, Item No. 7076S; TMB liquid Substrate System, purchased from Sigma-Aldrich, Item No. T0440; Costar Stripwell Microplate No Lid 1×8 Flat Bottom, Certified High Binding, purchased from Sigma-Aldrich, Item No. 42592; 96-well compound plate, purchased from Thermo Scientific, Item No. 267245.
• 1. Coating substrate: 1) An appropriate volume of substrate storage solution protein tyrosine kinase (PTK) substrate (poly-Glu-Tyr) was taken, diluted 10 times with PBS, and the concentration was diluted from […]. The mixture was added to a high adsorption 96-well plate at 125 μL per well. The plate was placed in an incubator at 37° C. for overnight coating. 2) After 24 hours, the 96-well plate was taken out, the liquid in the 96-well plate was poured out, cleaned with washing buffer for 3 times, and the incubator at 37° C. was inverted and dried for 2 hours. • 2. Compound preparation and transfer: 1) compound dilution: 10 mM of the test compound storage solution was taken, the compound in 96-well compound plate was diluted with DMSO in multiple steps to obtain the initial concentration of 100× compound as the first concentration, and then DMSO was used for 4-fold gradient dilution, for a total of 6 concentrations; after that, 2 μL of the gradient dilution solution was added to 48 μL of 1× reaction buffer respectively to prepare 4× compound; 2) 4× compounds were transferred: 10 μL of 4× compounds from the 96-well compound plate configured in the previous step were transferred into the dried high adsorption 96-well plate; 10 μL of the following liquids were added to the compound-free control wells and ATP-control wells: 2 μL of DMSO was added to 48 μL of 1× reaction buffer. • 3. Enzyme reaction stage: 1) WEE1 kinase and ATP were prepared into 2× enzyme solution and 4×ATP solution respectively with 1× reaction buffer. In this screening, the final concentration of WEE1 kinase was: 0.15 ng/μL and the final concentration of ATP was: […]; 2) 20 μL of enzyme solution of 2 was added to the high adsorption 96-well plate; 3) 10 μL of 4×ATP solution was added to the high adsorption 96-well plate and 10 μL of 1× reaction buffer was added to the ATP-control group; 4) the plate was placed in HERAEUS Multifuge X1R centrifuge at 2000 rpm for 20 s and then placed at room temperature and reacted for 60 min. • 4. Reaction termination stage: 1) the reaction mixture in the plate was poured out, 200 μL of washing buffer was added to each well, and washed for 5 times; the primary antibody P-Tyr (PY99) (dilution ratio 1:2000) was added, 100 μL per well, at room temperature for 30 min. 2) The primary antibody in the plate was poured out, 200 μL of washing buffer was added to each well, and washed for 5 times; the second antibody Anti-mouse IgG HRP-linked Antibody (dilution ratio 1:2000) was added, 100 μL per well, at room temperature for 30 min.

[2] = iv, 3 mg/kg, iv, 3 mg/kg, read-out: Vss
[3] = iv, 3 mg/kg, iv, 3 mg/kg, read-out: Vz

C=CCn1c(=O)c2cnc(Nc3ccc(C4CCC(N5CCC5)CC4)cc3)nc2n1-c1cccc(C(C)(C)O)n1 (stereo not drawn) [Compound I-8]
Cmax ([1]; iv, 3 mg/kg): 644 ± 132 ng/mL | MRT ([1]; iv, 3 mg/kg): 1.11 ± 0.08 h | Tmax ([1]; iv, 3 mg/kg): 0.03 h | clearance ([1]; iv, 3 mg/kg): 155 mL/min/kg | half-life ([1]; iv, 3 mg/kg): 1.22 ± 0.1 h | Vd [1, 2]: 10.3 ± 0.86 L/kg | Vd [1, 3]: 16.3 ± 2.48 L/kg | bioavailability [1]: 60.3% | Cmax ([1]; po (intragastric), 10 mg/kg): 58.1 ± 7.09 ng/mL | MRT ([1]; po (intragastric), 10 mg/kg): 3.47 ± 1.22 h | Tmax ([1]; po (intragastric), 10 mg/kg): 1.67 ± 0.29 h | half-life ([1]; po (intragastric), 10 mg/kg): 1.57 ± 0.39 h | AUClast ([1]; iv, 3 mg/kg): 317.5 ± 34.41 (h) (ng/mL) | AUClast ([1]; po (intragastric), 10 mg/kg): 637.9 ± 302.3 (h) (ng/mL) | IC50 (WEE1 kinase): 1.52 nM

C=CCn1c(=O)c2cnc(Nc3ccc4c(c3)CCC(N(C)C)C4)nc2n1-c1cccc(C(C)(C)O)n1 (stereo not drawn) [Control 2, reference compound]
Cmax ([1]; iv, 3 mg/kg): 646 ± 76.8 ng/mL | MRT ([1]; iv, 3 mg/kg): 0.86 ± 0.16 h | Tmax ([1]; iv, 3 mg/kg): 0.03 h | clearance ([1]; iv, 3 mg/kg): 188 mL/min/kg | half-life ([1]; iv, 3 mg/kg): 1.37 ± 0.33 h | Vd [1, 2]: 9.69 ± 0.96 L/kg | Vd [1, 3]: 22.2 ± 3.29 L/kg | bioavailability [1]: 9.19% | Cmax ([1]; po (intragastric), 10 mg/kg): 27.8 ± 4.76 ng/mL | MRT ([1]; po (intragastric), 10 mg/kg): 3.78 ± 1.56 h | Tmax ([1]; po (intragastric), 10 mg/kg): 1.67 ± 2.02 h | half-life ([1]; po (intragastric), 10 mg/kg): 2.51 ± 1.85 h | AUClast ([1]; iv, 3 mg/kg): 261.52 ± 26.93 (h) (ng/mL) | AUClast ([1]; po (intragastric), 10 mg/kg): 80.15 ± 9.62 (h) (ng/mL) | IC50 (WEE1 kinase): 1.98 nM

C=CCn1c(=O)c2cnc(Nc3ccc(C4CCC(N5CCCC5)CC4)cc3)nc2n1-c1cccc(C(C)(C)O)n1 (single isomer, unassigned) [Compound I-3-1]
IC50 (WEE1 kinase): 0.35 nM

C=CCn1c(=O)c2cnc(Nc3ccc(C4CCC(NC(=N)N)CC4)cc3)nc2n1-c1cccc(C(C)(C)O)n1 (stereo not drawn) [Compound I-20]
IC50 (WEE1 kinase): 3.45 nM

C=CCn1c(=O)c2cnc(Nc3ccc(C4CCC(N(C)C)CC4)cc3)nc2n1-c1cccc(C2(O)COC2)n1 (single isomer, unassigned) [Compound I-15-2]
IC50 (WEE1 kinase): 1.68 nM

C=CCn1c(=O)c2cnc(Nc3ccc(C4CC(N(C)C)C4)cc3)nc2n1-c1cccc(C(C)(C)O)n1 (stereo not drawn) [Compound I-31, 2-allyl-6-((4-(3-(dimethylamino)cyclobutyl)phenyl)amino)-1-(6-(2-hydroxypropan-2-yl)pyridin-2-yl)-1,2-dihydro-3H-pyrazolo[3,4-d]pyrimidin-3-one]
IC50 (WEE1 kinase): 2.05 nM

C=CCn1c(=O)c2cnc(Nc3ccc(C4CCC(C#N)CC4)cc3)nc2n1-c1cccc(C2(O)COC2)n1 (stereo not drawn) [Compound I-38]
IC50 (WEE1 kinase): 1.68 nM

C=CCn1c(=O)c2cnc(Nc3ccc(C4CCC(N5CCOC5=O)CC4)cc3)nc2n1-c1cccc(C2(O)COC2)n1 (stereo not drawn) [Compound I-37]
IC50 (WEE1 kinase): 1.99 nM

C=CCn1c(=O)c2cnc(Nc3ccc(C4CCC(N5CCC5)CC4)cc3)nc2n1-c1cccc(C2(O)COC2)n1 (single isomer, unassigned) [Compound I-36-2]
IC50 (WEE1 kinase): 2.92 nM

C=CCn1c(=O)c2cnc(Nc3ccc(C4CCC(C(=O)OCC)CC4)cc3)nc2n1-c1cccc(C2(O)COC2)n1 (stereo not drawn) [Compound I-39]
IC50 (WEE1 kinase): 2.08 nM

C=CCn1c(=O)c2cnc(Nc3ccc(C4CCC(C(=O)N5CCC5)CC4)cc3)nc2n1-c1cccc(C(C)(C)O)n1 (stereo not drawn) [Compound I-7]
IC50 (WEE1 kinase): 6.53 nM

C=CCn1c(=O)c2cnc(Nc3ccc(C4CCC(NS(C)(=O)=O)CC4)cc3)nc2n1-c1cccc(C(C)(C)O)n1 (stereo not drawn) [Compound I-19, N-(4-(4-((2-allyl-1-(6-(2-hydroxypropan-2-yl)pyridin-2-yl)-3-oxo-2,3-dihydro-1H-pyrazolo[3,4-d]pyrimidin-6-yl)amino)phenyl)cyclohexyl)methanesulfonamide]
IC50 (WEE1 kinase): 3.89 nM

C=CCn1c(=O)c2cnc(Nc3ccc(C4CCC(C(=O)O)CC4)cc3)nc2n1-c1cccc(C(C)(C)O)n1 (stereo not drawn) [Compound I-5, 4-(4-((2-allyl-1-(6-(2-hydroxypropan-2-yl)pyridin-2-yl)-3-oxo-2,3-dihydro-1H-pyrazolo[3,4-d]pyrimidin-6-yl)amino)phenyl)cyclohexane-1-carboxylic acid]
IC50 (WEE1 kinase): 7.15 nM

C=CCn1c(=O)c2cnc(Nc3ccc(C4CCC(N(C)C)CC4)cc3)nc2n1-c1cccc(C(C)(C)O)n1 (single isomer, unassigned) [Compound I-1-1]
Cmax ([1]; iv, 3 mg/kg): 701 ± 142 ng/mL | MRT ([1]; iv, 3 mg/kg): 1.75 ± 0.46 h | Tmax ([1]; iv, 3 mg/kg): 0.03 h | clearance ([1]; iv, 3 mg/kg): 129 mL/min/kg | half-life ([1]; iv, 3 mg/kg): 4.31 ± 1.51 h | Vd [1, 2]: 13.6 ± 3.95 L/kg | Vd [1, 3]: 48.5 ± 18.4 L/kg | bioavailability [1]: 42.6% | Cmax ([1]; po (intragastric), 10 mg/kg): 245 ± 220 ng/mL | MRT ([1]; po (intragastric), 10 mg/kg): 4.33 ± 9.02 h | Tmax ([1]; po (intragastric), 10 mg/kg): 2.5 ± 1.32 h | half-life ([1]; po (intragastric), 10 mg/kg): 3.1 ± 9.02 h | AUClast ([1]; iv, 3 mg/kg): 372.5 ± 24.38 (h) (ng/mL) | AUClast ([1]; po (intragastric), 10 mg/kg): 528.6 ± 331.1 (h) (ng/mL) | IC50 (WEE1 kinase): 1.9 nM

C=CCn1c(=O)c2cnc(Nc3ccc(C4CCC(N5CCOCC5)CC4)cc3)nc2n1-c1cccc(C(C)(C)O)n1 (stereo not drawn) [Compound I-2]
IC50 (WEE1 kinase): 2.57 nM
